In patent US9896435B2, “N-pyrrolidinyl,N′-pyrazolyl-urea, thiourea, guanidine and cyanoguanidine compounds as TrkA kinase inhibitors” (Array BioPharma Inc., priority 2012, dated 2018):

What was measured:
Experiment in all cases: KinaseProfiler off-target kinase profiling
Assay type in all cases: biochemical
Details in all cases: 10 μM, ATP near Km
AKT3 = AKT3 (Homo sapiens (Human), UniProt Q9Y243)
Protocol: (§1) Two representative compounds (Example 2, 14) of the invention were tested for off-target kinase activity at a concentration of 10 μM by Millipore, Inc. in their KinaseProfiler™ service against all the kinases available in their full kinase panel. These compounds were run in duplicate at a concentration of ATP near the Km for each individual kinase according to Millipore's specifications. The results are shown in Table B. Data are reported as percent of control (POC) and are the average of the two replicates.

ARK5 = ARK5 (Homo sapiens (Human), UniProt O60285)
Protocol: as §1

BrSK2 = BrSK2 (Homo sapiens (Human), UniProt Q8IWQ3)
Protocol: as §1

CAMK1 = CAMK1 (Homo sapiens (Human), UniProt Q14012)
Protocol: as §1

CDK5/p25 = CDK5/p25 (Homo sapiens (Human), UniProt Q00535)
Protocol: as §1

CDK6/cyclinD3 = CDK6/cyclinD3 (Homo sapiens (Human), UniProt Q00534)
Protocol: as §1

CSK = CSK (Homo sapiens (Human), UniProt P41240)
Protocol: as §1

EphA1 = EphA1 (Homo sapiens (Human), UniProt P21709)
Protocol: as §1

EphB3 = EphB3 (Homo sapiens (Human), UniProt P54753)
Protocol: as §1

ErbB4 = ErbB4 (Homo sapiens (Human), UniProt Q15303)
Protocol: as §1

FAK = FAK (Homo sapiens (Human), UniProt Q05397)
Protocol: as §1

FAK2 = FAK2 (Homo sapiens (Human), UniProt Q14289)
Protocol: as §1

FGFR2 = FGFR2 (Homo sapiens (Human), UniProt P21802)
Protocol: as §1

Fes = Fes (Homo sapiens (Human), UniProt P07332)
Protocol: as §1

Flt3 = Flt3 (Homo sapiens (Human), UniProt P36888)
Protocol: as §1

GSK3alpha = GSK3alpha (Homo sapiens (Human), UniProt P49840)
Protocol: as §1

GSK3beta = GSK3beta (Homo sapiens (Human), UniProt P49841)
Protocol: as §1

Haspin = Haspin (Homo sapiens (Human), UniProt Q8TF76)
Protocol: as §1

IR = IR (Homo sapiens (Human), UniProt P06213)
Protocol: as §1

JAK2 = JAK2 (Homo sapiens (Human), UniProt O60674)
Protocol: as §1

JNK2alpha2 = JNK2alpha2 (Homo sapiens (Human), UniProt P45984)
Protocol: as §1

MAP3K5 = MAP3K5 (Homo sapiens (Human), UniProt Q99683)
Protocol: as §1

MARK2 = MARK2 (Homo sapiens (Human), UniProt Q7KZI7)
Protocol: as §1

MELK = MELK (Homo sapiens (Human), UniProt Q14680)
Protocol: as §1

MKK7 = MKK7 (Homo sapiens (Human), UniProt O14733)
Protocol: as §1

MRCKalpha = MRCKalpha (Homo sapiens (Human), UniProt Q5VT25)
Protocol: as §1

MSK2 = MSK2 (Homo sapiens (Human), UniProt O75676)
Protocol: as §1

NLK = NLK (Homo sapiens (Human), UniProt Q9UBE8)
Protocol: as §1

PAK2 = PAK2 (Homo sapiens (Human), UniProt Q13177)
Protocol: as §1

PDGFRalpha = PDGFRalpha (Homo sapiens (Human), UniProt P16234)
Protocol: as §1

PKCzeta = PKCzeta (Homo sapiens (Human), UniProt Q05513)
Protocol: as §1

Pim-3 = Pim-3 (Homo sapiens (Human), UniProt Q86V86)
Protocol: as §1

Rsk4 = Rsk4 (Homo sapiens (Human), UniProt Q9UK32)
Protocol: as §1

SGK1 = SGK1 (Homo sapiens (Human), UniProt O00141)
Protocol: as §1

SGK2 = SGK2 (Homo sapiens (Human), UniProt Q9HBY8)
Protocol: as §1

TLK2 = TLK2 (Homo sapiens (Human), UniProt Q86UE8)
Protocol: as §1

Tie2 = Tie2 (Homo sapiens (Human), UniProt Q02763)
Protocol: as §1

ULK2 = ULK2 (Homo sapiens (Human), UniProt Q8IYT8)
Protocol: as §1

VRK2 = VRK2 (Homo sapiens (Human), UniProt Q86Y07)
Protocol: as §1

WNK3 = WNK3 (Homo sapiens (Human), UniProt Q9BYP7)
Protocol: as §1

Sequence of CDK5/p25 (Q00535 whole entry): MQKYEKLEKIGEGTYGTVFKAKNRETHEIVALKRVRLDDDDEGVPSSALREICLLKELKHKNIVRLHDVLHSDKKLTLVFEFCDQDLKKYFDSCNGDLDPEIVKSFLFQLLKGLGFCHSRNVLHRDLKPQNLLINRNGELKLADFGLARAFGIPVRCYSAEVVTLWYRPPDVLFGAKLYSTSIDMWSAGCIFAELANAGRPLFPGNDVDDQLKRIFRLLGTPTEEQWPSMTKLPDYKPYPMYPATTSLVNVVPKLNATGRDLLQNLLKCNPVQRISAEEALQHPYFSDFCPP
Sequence of CDK5/p25 (Q15078 99-307 partner): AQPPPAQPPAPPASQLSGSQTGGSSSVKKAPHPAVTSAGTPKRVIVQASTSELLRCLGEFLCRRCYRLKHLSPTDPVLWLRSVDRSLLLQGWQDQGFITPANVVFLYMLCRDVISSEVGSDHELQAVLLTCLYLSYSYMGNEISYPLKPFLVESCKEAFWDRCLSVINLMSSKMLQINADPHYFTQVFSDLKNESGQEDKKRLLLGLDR
Sequence of Haspin (Q8TF76 whole entry): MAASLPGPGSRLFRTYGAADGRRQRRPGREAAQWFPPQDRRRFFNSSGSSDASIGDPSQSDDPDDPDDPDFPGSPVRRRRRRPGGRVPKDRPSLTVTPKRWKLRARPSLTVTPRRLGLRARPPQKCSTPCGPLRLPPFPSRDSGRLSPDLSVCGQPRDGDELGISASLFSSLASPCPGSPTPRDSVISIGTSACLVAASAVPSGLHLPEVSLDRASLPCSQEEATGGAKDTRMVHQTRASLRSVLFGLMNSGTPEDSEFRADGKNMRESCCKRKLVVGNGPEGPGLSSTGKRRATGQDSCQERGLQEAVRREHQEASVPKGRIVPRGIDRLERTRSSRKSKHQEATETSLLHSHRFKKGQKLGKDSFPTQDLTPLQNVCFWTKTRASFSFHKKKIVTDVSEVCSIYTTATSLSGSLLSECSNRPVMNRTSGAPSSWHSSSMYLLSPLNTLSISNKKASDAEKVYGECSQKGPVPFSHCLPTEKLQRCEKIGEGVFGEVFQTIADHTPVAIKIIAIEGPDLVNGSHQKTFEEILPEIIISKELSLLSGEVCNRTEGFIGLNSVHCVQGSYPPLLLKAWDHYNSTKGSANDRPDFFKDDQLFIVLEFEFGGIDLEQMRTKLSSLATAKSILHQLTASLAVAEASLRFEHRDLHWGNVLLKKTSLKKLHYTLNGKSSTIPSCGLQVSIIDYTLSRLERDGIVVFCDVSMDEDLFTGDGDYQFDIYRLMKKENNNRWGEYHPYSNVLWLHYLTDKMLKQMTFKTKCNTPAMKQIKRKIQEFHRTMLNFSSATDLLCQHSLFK
Sequence of GSK3beta (P49841 whole entry): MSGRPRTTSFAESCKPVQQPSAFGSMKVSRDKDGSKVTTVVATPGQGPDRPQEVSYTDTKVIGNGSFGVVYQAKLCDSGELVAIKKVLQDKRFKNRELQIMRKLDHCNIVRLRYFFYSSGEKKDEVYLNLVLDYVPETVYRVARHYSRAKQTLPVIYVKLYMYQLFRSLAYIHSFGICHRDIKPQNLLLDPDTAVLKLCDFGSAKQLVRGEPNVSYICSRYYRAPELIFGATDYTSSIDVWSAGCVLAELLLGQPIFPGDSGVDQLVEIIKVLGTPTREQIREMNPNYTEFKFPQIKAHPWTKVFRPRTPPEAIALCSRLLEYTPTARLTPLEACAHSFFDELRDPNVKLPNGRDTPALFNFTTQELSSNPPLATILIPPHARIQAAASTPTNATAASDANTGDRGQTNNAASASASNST
Sequence of EphB3 (P54753 34-998): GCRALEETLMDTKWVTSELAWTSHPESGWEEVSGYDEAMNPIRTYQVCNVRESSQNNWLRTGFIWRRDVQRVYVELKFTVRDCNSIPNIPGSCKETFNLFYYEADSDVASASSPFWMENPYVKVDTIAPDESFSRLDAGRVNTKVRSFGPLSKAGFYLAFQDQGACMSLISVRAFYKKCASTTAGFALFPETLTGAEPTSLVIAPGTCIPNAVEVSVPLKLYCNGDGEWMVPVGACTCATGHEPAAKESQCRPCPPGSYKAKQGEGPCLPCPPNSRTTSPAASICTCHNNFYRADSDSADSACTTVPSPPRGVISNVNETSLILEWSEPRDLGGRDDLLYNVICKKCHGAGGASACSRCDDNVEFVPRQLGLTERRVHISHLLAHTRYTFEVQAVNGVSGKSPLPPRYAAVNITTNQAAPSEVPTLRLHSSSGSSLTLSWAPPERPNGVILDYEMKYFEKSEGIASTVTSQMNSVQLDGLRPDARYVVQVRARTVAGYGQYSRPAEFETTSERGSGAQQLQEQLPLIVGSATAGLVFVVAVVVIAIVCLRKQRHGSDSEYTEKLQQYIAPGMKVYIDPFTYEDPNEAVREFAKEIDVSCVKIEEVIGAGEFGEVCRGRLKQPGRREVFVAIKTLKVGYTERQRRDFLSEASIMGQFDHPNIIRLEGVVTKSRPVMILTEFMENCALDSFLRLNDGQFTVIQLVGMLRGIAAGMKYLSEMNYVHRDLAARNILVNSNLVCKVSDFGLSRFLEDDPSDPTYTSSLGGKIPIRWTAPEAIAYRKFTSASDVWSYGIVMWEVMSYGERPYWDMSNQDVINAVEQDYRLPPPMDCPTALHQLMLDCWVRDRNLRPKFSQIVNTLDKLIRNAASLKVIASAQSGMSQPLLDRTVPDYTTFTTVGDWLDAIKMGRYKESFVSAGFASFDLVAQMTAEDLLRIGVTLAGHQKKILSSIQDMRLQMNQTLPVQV
Sequence of JAK2 (O60674 whole entry): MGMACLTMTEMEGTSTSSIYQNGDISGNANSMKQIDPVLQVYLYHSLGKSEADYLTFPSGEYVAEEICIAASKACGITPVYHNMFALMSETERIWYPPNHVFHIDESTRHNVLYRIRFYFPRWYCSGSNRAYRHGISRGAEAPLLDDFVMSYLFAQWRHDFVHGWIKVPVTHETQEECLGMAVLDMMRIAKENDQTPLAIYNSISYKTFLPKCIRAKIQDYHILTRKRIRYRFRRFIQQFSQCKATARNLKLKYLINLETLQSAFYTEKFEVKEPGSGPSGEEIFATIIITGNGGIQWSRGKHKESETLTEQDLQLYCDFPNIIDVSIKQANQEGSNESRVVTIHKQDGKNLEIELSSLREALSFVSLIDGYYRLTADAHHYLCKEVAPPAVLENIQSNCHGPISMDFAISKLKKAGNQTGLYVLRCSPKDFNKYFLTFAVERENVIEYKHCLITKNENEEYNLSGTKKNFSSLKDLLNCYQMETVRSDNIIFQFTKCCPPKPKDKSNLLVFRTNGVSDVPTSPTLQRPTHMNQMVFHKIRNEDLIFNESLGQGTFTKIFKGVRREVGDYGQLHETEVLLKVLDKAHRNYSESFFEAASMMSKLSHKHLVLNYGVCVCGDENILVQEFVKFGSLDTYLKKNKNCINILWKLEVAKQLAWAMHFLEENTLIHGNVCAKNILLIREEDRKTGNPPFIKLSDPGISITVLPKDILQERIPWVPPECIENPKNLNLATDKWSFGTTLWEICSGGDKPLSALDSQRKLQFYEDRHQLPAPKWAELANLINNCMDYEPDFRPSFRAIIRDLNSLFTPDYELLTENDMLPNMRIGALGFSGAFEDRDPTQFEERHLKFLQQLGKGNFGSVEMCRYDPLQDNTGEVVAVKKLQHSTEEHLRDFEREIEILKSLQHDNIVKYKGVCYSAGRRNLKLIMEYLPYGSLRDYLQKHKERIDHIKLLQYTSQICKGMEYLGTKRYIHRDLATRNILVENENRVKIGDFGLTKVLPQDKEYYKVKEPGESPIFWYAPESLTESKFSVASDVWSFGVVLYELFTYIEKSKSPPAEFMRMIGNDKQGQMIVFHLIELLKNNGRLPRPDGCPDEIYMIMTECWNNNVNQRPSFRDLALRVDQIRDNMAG
Sequence of VRK2 (Q86Y07 whole entry): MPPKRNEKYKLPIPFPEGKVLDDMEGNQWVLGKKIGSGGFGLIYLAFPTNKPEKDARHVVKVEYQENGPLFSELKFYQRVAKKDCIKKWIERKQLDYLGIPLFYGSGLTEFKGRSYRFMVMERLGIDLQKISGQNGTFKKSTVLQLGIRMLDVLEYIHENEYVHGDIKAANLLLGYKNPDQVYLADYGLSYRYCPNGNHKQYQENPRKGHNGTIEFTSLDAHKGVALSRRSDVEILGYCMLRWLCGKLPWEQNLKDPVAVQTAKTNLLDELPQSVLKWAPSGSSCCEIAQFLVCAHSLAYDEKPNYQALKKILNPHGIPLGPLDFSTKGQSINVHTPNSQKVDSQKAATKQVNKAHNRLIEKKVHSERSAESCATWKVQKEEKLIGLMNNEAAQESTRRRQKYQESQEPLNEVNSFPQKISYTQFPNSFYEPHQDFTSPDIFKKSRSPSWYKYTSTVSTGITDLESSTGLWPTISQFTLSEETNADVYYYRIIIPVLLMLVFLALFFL
Sequence of CAMK1 (Q14012 whole entry): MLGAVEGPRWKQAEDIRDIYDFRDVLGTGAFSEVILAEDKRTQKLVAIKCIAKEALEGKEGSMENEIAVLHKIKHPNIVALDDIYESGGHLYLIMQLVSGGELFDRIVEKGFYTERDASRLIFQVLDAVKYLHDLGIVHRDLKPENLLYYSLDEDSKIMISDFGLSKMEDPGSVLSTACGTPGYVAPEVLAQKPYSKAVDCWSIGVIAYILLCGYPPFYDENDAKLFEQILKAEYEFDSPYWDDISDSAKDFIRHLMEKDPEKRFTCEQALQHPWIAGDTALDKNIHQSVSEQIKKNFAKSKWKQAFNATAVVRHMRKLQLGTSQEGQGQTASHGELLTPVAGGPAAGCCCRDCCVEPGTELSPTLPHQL

Avg POC (AKT3)	Avg POC (ARK5)	Avg POC (BrSK2)	Avg POC (CAMK1)	Avg POC (CDK5/p25)	Avg POC (CDK6/cyclinD3)	Avg POC (CSK)	Avg POC (EphA1)	Avg POC (EphB3)	Avg POC (ErbB4)	Avg POC (FAK)	Avg POC (FAK2)	Avg POC (FGFR2)	Avg POC (Fes)	Avg POC (Flt3)	Avg POC (GSK3alpha)	Avg POC (GSK3beta)	Avg POC (Haspin)	Avg POC (IR)	Avg POC (JAK2)	SMILES	further results
110 POC	89 POC	93 POC	107 POC	104 POC	96 POC	113 POC	97 POC	105.5 POC	98 POC	111.5 POC	99.5 POC	91.5 POC	135.5 POC	119.5 POC	94 POC	108 POC	71.5 POC	74.5 POC	112.5 POC	COCCN1C[C@@H](NC(=O)Nc2c(C)c(-c3ccnc(C)c3)nn2-c2ccccc2)[C@H](c2ccc(F)c(F)c2)C1 [Example 2, 1-((3S,4R)-4-(3,4-difluorophenyl)-1-(2-methoxyethyl)pyrrolidin-3-yl)-3-(4-methyl-3-(2-methylpyridin-4-yl)-1-phenyl-1H-pyrazol-5-yl)urea]	Avg POC (JNK2alpha2): 100 POC; Avg POC (MAP3K5): 97.5 POC; Avg POC (MARK2): 90 POC; Avg POC (MELK): 110 POC; Avg POC (MKK7): 97.5 POC; Avg POC (MRCKalpha): 113 POC; Avg POC (MSK2): 120 POC; Avg POC (NLK): 111.5 POC; Avg POC (PAK2): 95.5 POC; Avg POC (PDGFRalpha): 110.5 POC; Avg POC (PKCzeta): 100 POC; Avg POC (Pim-3): 104 POC; Avg POC (Rsk4): 136.5 POC; Avg POC (SGK1): 98.5 POC; Avg POC (SGK2): 99 POC; Avg POC (TLK2): 92.5 POC; Avg POC (Tie2): 71.5 POC; Avg POC (ULK2): 96.5 POC; Avg POC (VRK2): 101.5 POC; Avg POC (WNK3): 99 POC
104 POC	85 POC	99 POC	103.5 POC	99 POC	99.5 POC	103 POC	99 POC	138.5 POC	101.5 POC	98.5 POC	107 POC	103 POC	125 POC	90 POC	101.5 POC	114.5 POC	96 POC	84 POC	109 POC	COCCN1C[C@@H](NC(=O)Nc2c(C)c(-c3cnc(C)nc3)nn2-c2ccccc2)[C@H](c2cc(F)cc(F)c2)C1 [Example 14, 1-((3S,4R)-4-(3,5-difluorophenyl)-1-(2-methoxyethyl)pyrrolidin-3-yl)-3-(4-methyl-3-(2-methylpyrimidin-5-yl)-1-phenyl-1H-pyrazol-5-yl)urea]	Avg POC (JNK2alpha2): 97 POC; Avg POC (MAP3K5): 104 POC; Avg POC (MARK2): 99.5 POC; Avg POC (MELK): 111.5 POC; Avg POC (MKK7): 111 POC; Avg POC (MRCKalpha): 124.5 POC; Avg POC (MSK2): 116 POC; Avg POC (NLK): 108.5 POC; Avg POC (PAK2): 92.5 POC; Avg POC (PDGFRalpha): 114.5 POC; Avg POC (PKCzeta): 99.5 POC; Avg POC (Pim-3): 108.5 POC; Avg POC (Rsk4): 113.5 POC; Avg POC (SGK1): 99 POC; Avg POC (SGK2): 100 POC; Avg POC (TLK2): 93.5 POC; Avg POC (Tie2): 71 POC; Avg POC (ULK2): 106.5 POC; Avg POC (VRK2): 109.5 POC; Avg POC (WNK3): 96 POC
